The subject of the experiment is P100 membrane fraction of Caco-2 cells. The experiment in a line: Dansylated peptide ELISA: relative binding of PAX2 and HAX42 peptides to P100 fractions (ratio to ZElan021). The conditions noted are these: ratio to ZElan021 = 1.00. How it is done: The peptides and proteins were analyzed by a dansylated peptide ELISA method in which 96 well plates were coated overnight at 4° C. with 100 μl/well coating protein (normally 100 μg/ml P100 membrane fraction) in 0.05M carbonate buffer pH9.6. Nonspecific binding was blocked using 200 μl/well, 2% Marvel/PBS for 2 hours at 37° C. prior to incubation with dansylated peptides. The plates were washed three times with PBS/0.05% Tween 20 and after each subsequent incubation step. […] A buffer blank control was included to ensure that background binding to plastic was not due to the antibodies used in the assay system. […] Plates were developed using 75 μl/well Bionostics TMB substrate and incubated for approximately 10 minutes. The developing reaction was stopped using Bionostics Red Stop solution (25 μl/well), and the optical density of the plates was read at 650 nm. […]

The mark [1] stands for this setting: PAX2 peptides, 50 μg/ml, first column.
Setting [2] is: PAX2 peptides, 50 μg/ml, second column.
[3] abbreviates: HAX42 peptides, 50 μg/ml, first column.
The mark [4] stands for this setting: HAX42 peptides, 50 μg/ml, second column.

Ends that are not written are not given here. Peptide text beside a SMILES is read from it. * marks the point of attachment. Dansyl = CN(C)c1cccc2c(S(=O)(=O)*)cccc12

The text below walks through data of patent US7053177B1, “Random peptides that bind to gastro-intestinal tract (GIT) transport receptors and related methods” (Cytogen Corporation, priority 1997, dated 2006).

For the molecule `CC(C)C[C@H](NC(=O)[C@H](CCCNC(=N)N)NC(=O)[C@H](CCCNC(=N)N)NC(=O)[C@H](CC(N)=O)NC(=O)[C@H](Cc1c[nH]cn1)NC(=O)[C@H](C)NC(=O)[C@H](CO)NC(=O)[C@@H](N)CCCCNS(=O)(=O)c1cccc2c(N(C)C)cccc12)C(=O)N[C@@H](CCCNC(=N)N)C(=O)N[C@H](C(=O)N[C@@H](CCCNC(=N)N)C(N)=O)[C@@H](C)O` [ZElan074] (H-K(Dansyl)SAHNRRLRTR-NH2), for the setting “PAX2 peptides, first column”, the “Binding value at 20 μg/ml” value was 0.06. Moreover, the “Binding value at 50 μg/ml (Jackson Ab)” value (PAX2 peptides, 50 μg/ml, Jackson Ab) came to 0.71. Moreover, under “PAX2 peptides, 50 μg/ml, Southern Ab”, the “Binding value at 50 μg/ml (Southern Ab)” value was 0.48. Also, the “Binding value at 50 μg/ml” value reads like this: under setting [1], 0.82; under setting [2], 0.52.

With `CC(C)C[C@H](NC(=O)[C@H](CCCNC(=N)N)NC(=O)[C@H](CO)NC(=O)[C@@H](NC(=O)[C@H](CCCCN)NC(=O)[C@H](CC(N)=O)NC(=O)[C@H](CCCNC(=N)N)NC(=O)[C@@H](NC(=O)[C@H](CC(N)=O)NC(=O)[C@H](CCCNC(=N)N)NC(=O)[C@@H](N)CCCCNS(=O)(=O)c1cccc2c(N(C)C)cccc12)[C@@H](C)O)[C@@H](C)O)C(=O)N[C@@H](CO)C(=O)N[C@@H](C)C(=O)N[C@@H](CC(N)=O)C(=O)N1CCC[C@H]1C(=O)N[C@@H](Cc1c[nH]cn1)C(=O)N[C@@H](CCCNC(=N)N)C(=O)N[C@@H](CO)C(=O)N[C@@H](Cc1c[nH]cn1)C(=O)N[C@@H](CCCNC(=N)N)C(N)=O` [ZElan084] (H-K(Dansyl)RNTRNKTSRLSANPHRSHR-NH2), the “Binding value at 20 μg/ml” value (PAX2 peptides, second column) stood at 0.93. Besides, under setting [2], the “Binding value at 50 μg/ml” value turned out to be 0.77.

For the molecule `CC(C)C[C@H](NC(=O)[C@H](CCCNC(=N)N)NC(=O)[C@H](CCCNC(=N)N)NC(=O)[C@@H](N)CCCCNS(=O)(=O)c1cccc2c(N(C)C)cccc12)C(=O)N[C@@H](CCCNC(=N)N)C(=O)N[C@H](C(=O)N[C@@H](CCCNC(=N)N)C(=O)N[C@@H](CO)C(=O)N[C@@H](CCCNC(=N)N)C(=O)N1CCC[C@H]1C(=O)N[C@@H](CC(N)=O)C(N)=O)[C@@H](C)O` [ZElan056] (H-K(Dansyl)RRLRTRSRPN-NH2), the “Binding value at 20 μg/ml” value by setting is: (PAX2 peptides, first column) 0.00; (PAX2 peptides, second column) 0.16. For the same molecule, the “Binding value at 50 μg/ml” value is, setting by setting: under setting [1], 0.21; under setting [2], 0.21.

With “K(Dansyl)GRNHDVVSSNTHKSYRSPRSASYPRLSNDRTDRTEPAPSS-NH2 [ZElan083]”, the “Binding value at 20 μg/ml” value reads like this: (PAX2 peptides, first column) 0.43; (PAX2 peptides, second column) 0.63. In addition, the “Binding value at 50 μg/ml” value under setting [2] came to 0.88.

For the molecule `CC(C)C[C@H](NC(=O)[C@H](CCCNC(=N)N)NC(=O)[C@H](CCCNC(=N)N)NC(=O)[C@H](CC(N)=O)NC(=O)[C@H](Cc1c[nH]cn1)NC(=O)[C@H](CO)NC(=O)[C@H](CO)NC(=O)[C@H](Cc1c[nH]cn1)NC(=O)[C@H](CCCCN)NC(=O)[C@H](C)NC(=O)[C@H](CC(N)=O)NC(=O)[C@@H](NC(=O)[C@@H](N)CCCCNS(=O)(=O)c1cccc2c(N(C)C)cccc12)[C@@H](C)O)C(=O)N[C@@H](CCCNC(=N)N)C(=O)N[C@H](C(=O)N[C@@H](CCCNC(=N)N)C(N)=O)[C@@H](C)O` [ZElan033] (H-K(Dansyl)TNAKHSSHNRRLRTR-NH2), the “Binding value at 20 μg/ml” value (PAX2 peptides, first column) was 0.35. Besides, the “Binding value at 50 μg/ml” value came out at 0.80 under setting [1] and 0.66 under setting [2].

On to `CC(C)C[C@H](NC(=O)[C@H](CC(N)=O)NC(=O)[C@@H](N)CCCCNS(=O)(=O)c1cccc2c(N(C)C)cccc12)C(=O)N[C@@H](CCCNC(=N)N)C(=O)N[C@@H](CO)C(=O)N[C@@H](CC(=O)O)C(=O)N[C@@H](CC(N)=O)C(=O)N[C@@H](C)C(=O)N[C@@H](CCCCN)C(=O)N[C@@H](CCC(=O)O)C(=O)N1CCC[C@H]1C(=O)NCC(=O)N[C@@H](CC(=O)O)C(=O)N[C@@H](Cc1ccc(O)cc1)C(=O)N[C@@H](CC(N)=O)C(=O)N[C@@H](CS)C(=O)N[C@@H](CS)C(=O)NCC(=O)N[C@@H](CC(N)=O)C(=O)NCC(=O)N[C@@H](CC(N)=O)C(=O)N[C@@H](CO)C(=O)N[C@H](C(=O)NCC(=O)N[C@@H](CCCNC(=N)N)C(=O)N[C@@H](CCCCN)C(=O)N[C@H](C(=O)N[C@@H](Cc1ccccc1)C(=O)N[C@@H](CC(N)=O)C(=O)N[C@@H](CCCNC(=N)N)C(N)=O)C(C)C)[C@@H](C)O` [ZElan071] (H-K(Dansyl)NLRSDNAKEPGDYNCCGNGNSTGRKVFNR-NH2), for which the “Binding value at 50 μg/ml” value by setting is: under setting [3], 0.89; under setting [4], 0.75.

Take `CC(C)C[C@H](NC(=O)[C@H](C)NC(=O)[C@H](Cc1c[nH]cn1)NC(=O)[C@H](CC(=O)O)NC(=O)[C@H](CO)NC(=O)[C@@H](N)CCCCNS(=O)(=O)c1cccc2c(N(C)C)cccc12)C(=O)NCC(=O)N[C@H](C(=O)N[C@@H](CC(N)=O)C(=O)N[C@@H](CC(C)C)C(=O)N[C@@H](CCCNC(=N)N)C(=O)N[C@@H](CO)C(=O)N[C@@H](CC(=O)O)C(=O)N[C@@H](CC(N)=O)C(=O)N[C@@H](C)C(=O)N[C@@H](CCCCN)C(=O)N[C@@H](CCC(=O)O)C(=O)N1CCC[C@H]1C(=O)NCC(=O)N[C@@H](CC(=O)O)C(=O)N[C@@H](Cc1ccc(O)cc1)C(=O)N[C@@H](CC(N)=O)C(=O)N[C@@H](CS)C(=O)N[C@@H](CS)C(=O)NCC(=O)N[C@@H](CC(N)=O)C(=O)NCC(=O)N[C@@H](CC(N)=O)C(=O)N[C@@H](CO)C(=O)N[C@H](C(N)=O)[C@@H](C)O)[C@@H](C)O` [ZElan070] (H-K(Dansyl)SDHALGTNLRSDNAKEPGDYNCCGNGNST-NH2): under “HAX42 peptides”, the “Binding value at 20 μg/ml” value came to 0.59. Further, the “Binding value at 50 μg/ml” value reads like this: under setting [3], 0.97; under setting [4], 0.39.

As to `CC[C@H](C)[C@H](NC(=O)[C@H](C)NC(=O)[C@H](CO)NC(=O)[C@@H]1CCCN1C(=O)[C@H](CCCNC(=N)N)NC(=O)[C@H](CCCNC(=N)N)NC(=O)[C@H](CC(N)=O)NC(=O)[C@H](Cc1ccccc1)NC(=O)[C@@H](NC(=O)[C@H](CCCCN)NC(=O)[C@H](CCCNC(=N)N)NC(=O)CNC(=O)[C@@H](NC(=O)[C@H](CO)NC(=O)[C@H](CC(N)=O)NC(=O)CNC(=O)[C@H](CC(N)=O)NC(=O)CNC(=O)[C@H](CS)NC(=O)[C@H](CS)NC(=O)[C@H](CC(N)=O)NC(=O)[C@H](Cc1ccc(O)cc1)NC(=O)[C@H](CC(=O)O)NC(=O)CNC(=O)[C@@H]1CCCN1C(=O)[C@@H](N)CCCCNS(=O)(=O)c1cccc2c(N(C)C)cccc12)[C@@H](C)O)C(C)C)C(=O)N1CCC[C@H]1C(=O)N[C@H](C(N)=O)[C@@H](C)O` [ZElan072] (H-K(Dansyl)PGDYNCCGNGNSTGRKVFNRRPSAIPT-NH2), the “Binding value at 20 μg/ml” value (HAX42 peptides) came to 0.83. For the same molecule, the “Binding value at 50 μg/ml” value was 0.61 under setting [3] and 0.88 under setting [4].

For `CC(C)C[C@H](NC(=O)[C@H](C)NC(=O)[C@H](Cc1c[nH]cn1)NC(=O)[C@H](CC(=O)O)NC(=O)[C@H](CO)NC(=O)[C@@H](N)CCCCNS(=O)(=O)c1cccc2c(N(C)C)cccc12)C(=O)NCC(=O)N[C@H](C(=O)N[C@@H](CC(N)=O)C(=O)N[C@@H](CC(C)C)C(=O)N[C@@H](CCCNC(=N)N)C(=O)N[C@@H](CO)C(=O)N[C@@H](CC(=O)O)C(=O)N[C@@H](CC(N)=O)C(=O)N[C@@H](C)C(=O)N[C@@H](CCCCN)C(=O)N[C@@H](CCC(=O)O)C(=O)N1CCC[C@H]1C(=O)NCC(N)=O)[C@@H](C)O` [ZElan062] (H-K(Dansyl)SDHALGTNLRSDNAKEPG-NH2), under “HAX42 peptides”, the “Binding value at 20 μg/ml” value is listed as 0.11. For the same molecule, the “Binding value at 50 μg/ml” value is, setting by setting: under setting [3], 0.42; under setting [4], 0.34.
